Data reported in patent publication US20220071952A1, “METHODS OF TREATING AND PREVENTING HEPATOTOXICITY” (Natreon, Inc., priority 2020, published 2022).
“And” between values parts separate entries of the source, which are not always exact repeats. Equal entries are not always repeated.

Tests used:
[1] = tested on: CCl4-induced hepatotoxicity in mice; assay: Synergistic hepatoprotective activity of DBPs against CCl4-induced hepatotoxicity (Example IV); details: for ACP / ALP / ALT / AST / Total Protein: CCl4 1 ml/kg, mean ± SEM, n=4
[2] = tested on: alcohol-induced hepatotoxicity in mice; assay: Alcohol (ethanol)-induced hepatotoxicity in mice, biochemical and physical parameters (Example III); type: in vivo, Swiss Albino mice; details: for Relative organ weight (w.r.t body weight) Kidney / Relative organ weight (w.r.t body weight) Liver / ACP / ALP / ALT(SGPT) / AST(SGOT) / Total Protein: 10 mg/kg p.o. + alcohol 5 g/kg p.o. twice daily, mean ± SD; for ACP / ALP / ALT(SGPT) / AST(SGOT) / Total Protein: plasma
Method: (§1) Swiss Albino male and female mice weighing approximately 30±5 g, 2 month old mice were obtained from National Research Institute of Ayurveda for Drug Development (Govt. of India), Kolkata, and were housed in polypropylene cages at 22±3° C., relative air humidity of 45 to 55%, with 12.00 hr light & dark cycle (lighting on from 6:00 AM to 6:00 PM). Mice were provided a standard pellet chow diet (carbohydrate 65.5%, protein 17.6%, fat 6.6%) and distilled water ad libitum. The mice were acclimatized for one week in the laboratory conditions, before being used in the experiment. All experiments were conducted between 10.00 hr and 14.00 hr. Principles of laboratory animals care (NIH publication no. 85-23, revised 1985) were followed.
In the present study simultaneous administration of alcohol (ethanol) and treatment with 3-OH-DBP and 3,8-(OH)2-DBP was done.
(§2) Vehicle control animals (“Con Veh”) were administered 0.3% CMC orally for 15 days.
(§3) Animals receiving ethanol (“Alc+0.3 CMC”, “3-OH-DBP+Alc”, “3,8-(OH)2-DBP+Alc”) were administered ethanol in 0.3% CMC orally as discussed above.
(§4) Results were expressed in terms of mean±SD (n=8). The data were subjected to one way ANOVA followed by Tukey's test using GraphPad Prism 4.0 software to establish statistical significance (*p<0.05, **p<0.01, ***p<0.001 vs. vehicle control; # p<0.05, ## p<0.01, ### p<0.001 vs. animals administered ethanol only).

[3] = Body weight, food intake and water intake during alcohol-induced hepatotoxicity study (Example III); type: in vivo, Swiss Albino mice; details: for change in body weight / change in food intake / change in water intake: 10 mg/kg p.o. + alcohol, 15 days; for body weight / food intake / water intake: 10 mg/kg p.o. + alcohol 5 g/kg p.o. twice daily, mean ± SD
Method: as §1, §2, §3, §4

[4] = tested on: CCl4-induced hepatotoxicity in mice; assay: Carbon tetrachloride (CCl4)-induced hepatotoxicity in mice, serum biochemical parameters (Example II); type: in vivo, Swiss albino mice; details: for ALT / AST / MDA / Total Bilirubin / Total Protein: 10 mg/kg p.o. 7 days + CCl4 (30%) 1 ml/kg i.p., serum, mean ± SD, n=6
Method: Swiss albino mice of both sexes, weighing approximately 25-30 g, were obtained from National Research Institute of Ayurveda for Drug Development (Govt. of India), Kolkata, and were housed in polypropylene cages at 22±3° C., relative air humidity of 45 to 55%, with 12.00 hr light and dark cycle (lighting on from 6:00 AM to 6:00 PM) and were provided standard pellet chow (carbohydrate 65.5%, protein 17.6%, fat 6.6%) and distilled water ad libitum. The mice were acclimatized for one week in the laboratory conditions before being used in the experiment. All experiments were conducted between 10.00 hr and 14.00 hr. Principles of laboratory animals care (NIH publication no. 85-23, revised 1985) were followed.

[5] = female mice, doses 3-OH-DBP 2, 3,8-(OH)2-DBP 10, 1:5 combination 12 mg/kg b.w.
[6] = female mice, doses 3-OH-DBP 10, 3,8-(OH)2-DBP 50, 1:5 combination 60 mg/kg b.w.
[7] = male mice, doses 3-OH-DBP 2, 3,8-(OH)2-DBP 10, 1:5 combination 12 mg/kg b.w.
[8] = male mice, doses 3-OH-DBP 10, 3,8-(OH)2-DBP 50, 1:5 combination 60 mg/kg b.w.
[9] = female mice (Table 14), 10 mg/kg p.o.
[10] = male mice (Table 13), 10 mg/kg p.o.

For `O=c1oc2cc(O)ccc2c2ccccc12` [3-OH-DBP, 3-hydroxy-dibenzo-alpha-pyrone], the “hepatoprotective activity (conclusion, Tables 19 and 20)” value ([1]; CCl4-induced hepatotoxicity, male and female mice) was “hepatoprotective activity in a dose dependent manner”, the ACP [1, 5] was 48 ± 5.6 (b) U/L and the ALP [1, 5] was 75 ± 13 (b) IU/L. The ALT [1, 5] was 81 ± 7 (b) IU/L, the AST [1, 5] was 90 ± 4.2 (b) IU/L and the “Total Protein” value [1, 5] was 4.7 ± 0.59 g/dL. For the same compound, the ACP [1, 6] was 55 ± 4.1 (e) U/L, the ALP [1, 6] was 78 ± 6.9 (e) IU/L and the ALT [1, 6] was 75 ± 7.6*(e) IU/L. The AST [1, 6] was 69 ± 4.9 (e) IU/L, the “Total Protein” value [1, 6] was 7.2 ± 0.23 g/dL and the “ACP, difference in values from CCl4 treated mice” value (“ACP, difference in values” for short) [1, 5] was “A = (a-b = 32) U/L”. The “ALP, difference in values from CCl4 treated mice” value (“ALP, difference in values” below) [1, 5] was “A = (a-b = 15) IU/L”, the “ALT, difference in values from CCl4 treated mice” value (shortened to “ALT, difference in values”) [1, 5] was “A = (a-b = 6) IU/L” and the “AST, difference in values from CCl4 treated mice” value (“AST, difference in values” for short) [1, 5] was “A = (a-b = 15) IU/L”. The “ACP, difference in values” value [1, 6] was “D = (a-e = 26) U/L”, the “ALP, difference in values” value [1, 6] was “D = (a-e = 12) IU/L” and the “ALT, difference in values” value [1, 6] was “D = (a-e = 12) IU/L”. For the same compound, the “AST, difference in values” value [1, 6] was “D = (a-e = 36) IU/L”, the ACP [1, 7] was 49 ± 3.6***,#( b) U/L and the ALP [1, 7] was 79 ± 12#(b) IU/L. For the same compound, the ALT [1, 7] was 72 ± 3.4**(b) IU/L, the AST [1, 7] was 70 ± 4##(b) IU/L and the “Total Protein” value [1, 7] was 5.6 ± 0.37 g/dL. For the same compound, the ACP [1, 8] was 47 ± 2.6 (e) U/L, the ALP [1, 8] was 78 ± 6.9#(e) IU/L and the ALT [1, 8] was 67 ± 3.6 (e) IU/L. The AST [1, 8] was 69 ± 2.7 (e) IU/L, the “Total Protein” value [1, 8] was 6.3 ± 0.46 g/dL and the “ACP, difference in values” value [1, 7] was “A = (a-b = 37) U/L”. For the same compound, the “ALP, difference in values” value [1, 7] was “A = (a-b = 63) IU/L”, the “ALT, difference in values” value [1, 7] was “A = (a-b = 8) IU/L” and the “AST, difference in values” value [1, 7] was “A = (a-b = 33) IU/L”. The “ACP, difference in values” value [1, 8] was “D = (a-e = 39) U/L”, the “ALP, difference in values” value [1, 8] was “D = (a-e = 64) IU/L” and the “ALT, difference in values” value [1, 8] was “D = (a-e = 13) IU/L”. For the same compound, the “AST, difference in values” value [1, 8] was “D = (a-e = 34) IU/L”, the “hepatoprotective activity against alcohol-induced hepatotoxicity” value ([2]; 10 mg/kg p.o., 15 days) was “significant hepatoprotective activity” and the “effect on alcohol-induced increased plasma ACP” value [2, 9] was “significantly (p<0.05) attenuated”. The “effect on alcohol-induced increased plasma ALT” value [2, 9] was “significantly (p<0.001) attenuated”, the “effect on alcohol-induced increased plasma AST” value [2, 9] was “significantly (p<0.05; p<0.01) attenuated” and the “effect on plasma ALP level compared with ALC group” value [2, 9] was “significantly (p<0.05) decreased”. The “Relative organ weight (w.r.t body weight) Kidney” value ([2]; female mice, 15 days) was 0.013 ± 0.001^, the “Relative organ weight (w.r.t body weight) Liver” value ([2]; female mice, 15 days) was 0.052 ± 0.011^ and the ACP ([2]; female mice, 15 days) was 5.58 ± 2.19^# IU/L. For the same compound, the ALP ([2]; female mice, 15 days) was 32.95 ± 13.06^# IU/L, the “ALT(SGPT)” value ([2]; female mice, 15 days) was 6.72 ± 2.88^## IU/L and the “AST(SGOT)” value ([2]; female mice, 15 days) was 6.19 ± 1.94^# IU/L. The Total Protein ([2]; female mice, 15 days) was 2.75 ± 0.167 g/dL, the “effect on alcohol-induced increased plasma ACP” value [2, 10] was “significantly (p<0.05) attenuated” and the “effect on alcohol-induced increased plasma ALT” value [2, 10] was “significantly (p<0.05) attenuated”. For the same compound, the “effect on alcohol-induced increased plasma AST” value [2, 10] was “significantly (p<0.05) attenuated”, the “Relative organ weight (w.r.t body weight) Kidney” value ([2]; male mice, 15 days) was 0.014 ± 0.001 and the “Relative organ weight (w.r.t body weight) Liver” value ([2]; male mice, 15 days) was 0.044 ± 0.001. For the same compound, the ACP ([2]; male mice, 15 days) was 5.36 ± 2.34^# IU/L, the ALP ([2]; male mice, 15 days) was 20.20 ± 6.18^# IU/L and the “ALT(SGPT)” value ([2]; male mice, 15 days) was 11.93 ± 4.364^# IU/L. The “AST(SGOT)” value ([2]; male mice, 15 days) was 5.83 ± 1.75^# IU/L, the Total Protein ([2]; male mice, 15 days) was 2.75 ± 0.167 g/dL and the “change in body weight” value ([3]; female mice) was “No significant change”. The “change in food intake” value ([3]; female mice) was “No significant change”, the “change in water intake” value ([3]; female mice) was “No significant change” and the body weight ([3]; female mice, Day 0) was 26.83 ± 1.60 gm. For the same compound, the food intake ([3]; female mice, Day 0) was 8.14 ± 1.67 gm, the water intake ([3]; female mice, Day 0) was 4.16 ± 0.60 mL and the body weight ([3]; female mice, Day 5) was 25.5 ± 1.22 gm. It also gave a water intake ([3]; female mice, Day 5) of 4.32 ± 0.28 mL, a body weight ([3]; female mice, Day 10) of 24.33 ± 1.97 gm and a food intake ([3]; female mice, Day 10) of 16.38 ± 1.18 gm. The water intake ([3]; female mice, Day 10) was 1.85 ± 0.30 mL, the body weight ([3]; female mice, Day 15) was 25.17 ± 0.75 gm and the food intake ([3]; female mice, Day 15) was 15.88 ± 0.76 gm. For the same compound, the water intake ([3]; female mice, Day 15) was 1.84 ± 0.18 mL, the “change in body weight” value ([3]; male mice) was “No significant change” and the “change in food intake” value ([3]; male mice) was “No significant change”. For the same compound, the “change in water intake” value ([3]; male mice) was “No significant change”, the body weight ([3]; male mice, Day 0) was 24.33 ± 2.25 gm and the food intake ([3]; male mice, Day 0) was 14.02 ± 0.06 gm. The water intake ([3]; male mice, Day 0) was 2.05 ± 0.23 mL, the body weight ([3]; male mice, Day 5) was 24 ± 1.55 gm and the food intake ([3]; male mice, Day 5) was 14.18 ± 0.72 gm. For the same compound, the water intake ([3]; male mice, Day 5) was 2 ± 0.27 mL, the body weight ([3]; male mice, Day 10) was 25.5 ± 1.05 gm and the food intake ([3]; male mice, Day 10) was 14.51 ± 0.77 gm. It also gave a water intake ([3]; male mice, Day 10) of 1.93 ± 0.23 mL, a body weight ([3]; male mice, Day 15) of 25.3 ± 0.52 gm and a food intake ([3]; male mice, Day 15) of 14.45 ± 0.78 gm. The water intake ([3]; male mice, Day 15) was 1.98 ± 0.25 mL, the “effect on CCl4-induced hepatotoxicity (ALT, AST, bilirubin, total protein vs CCl4 group)” value ([4]; 10 mg/kg p.o., mice) was “significantly attenuated and reversed the CCl4-induced hepatotoxicity” and the “effect on CCl4-induced lipid peroxidation (MDA)” value ([4]; 10 mg/kg p.o., mice) was “significantly lowered CCl4-induced lipid peroxidation”. The ALT ([4]; female mice) was 67.34 ± 12.07 IU/L, the AST ([4]; female mice) was 17.48 ± 5.67 IU/L and the MDA ([4]; female mice) was 8.13 ± 0.167 nmol/mL. The “Total Bilirubin” value ([4]; female mice) was 0.53 ± 0.21 mg/dL, the Total Protein ([4]; female mice) was 3.92 ± 0.88 g/dL and the ALT ([4]; male mice) was 58.21 ± 6.79 IU/L. For the same compound, the AST ([4]; male mice) was 12.33 ± 3.29 IU/L, the “Total Bilirubin” value ([4]; male mice) was 0.50 ± 0.23 mg/dL and the “Total Protein” value ([4]; male mice) was 0.00355 ± 0.00031 g/dL. The MDA ([4]; male mice, 10 mg/kg) was 7.04 nmol/mL and 7.04 ± 0.09 nmol/mL and the “hepatoprotective activity against carbon tetrachloride-induced liver damage” value ([4]; males and females, 10 mg/kg p.o.) was “significant hepatoprotective activity”.
